Each molecule was assayed on ULK kinase substrate ATG13 (pS318-ATG13) in T24 cells (assay: pATG13 levels of mutant HRas T24 cells after treatment with ULK inhibitors in combination with trametinib (ELISA)). Settings: in combination with trametinib 250 nM.
Type: cell-based, human
Method: pATG13 Levels of Mutant HRas T24 Cells after Treatment with ULK Inhibitors in Combination with Trametinib
T24 human urinary bladder cancer cells (25000 cells/well) were added to a 96-well tissue-culture treated plate in 100 μL of pre-warmed DMEM medium supplemented with 10% characterized fetal bovine serum (Invitrogen, Carlsbad, CA), 100 units/mL penicillin G, and 100 μg/mL streptomycin and allowed to grow overnight at 37° C., 5% CO2, and 95% humidity. The following day, 100 μL of media containing trametinib or DMSO as a control was added to wells. The final concentration of trametinib in wells was 250 nM. A dose response of a test compound (0.5 μL per well) was added. DMSO (0.5 μL) was added to control wells. The plate was briefly shaken to mix wells and then incubated at 37° C. overnight. The next day, the media was aspirated and cells were washed with Dulbecco's Phosphate Buffered Saline (Gibco). Cells were lysed using MPER lysis buffer (Pierce, Rockford, IL) containing Halt Phosphatase and Protease Inhibitors (Pierce, Rockford, IL) and Phosphatase inhibitor cocktail 2 (Sigma, St. Louis, MO) at 4° C. for 10 min with shaking.
(§1) Cellular levels of phospho-Serine 318 ATG13 (pATG13) were measured via an ELISA method. Total ATG13 Antibody (Cell Signaling Cat #13273) was used to coat the wells. The plate was incubated at 4° C. overnight and washed with ELISA wash buffer (Biolegend Cat #421601). The wells were then blocked with assay diluent (Biolegend Cat #421203) for 1 h at rt. Plate wells were washed with ELISA wash buffer. Cell lysate was added to wells and incubated at rt for 2 h. Plate wells were washed with ELISA wash buffer. Biotinylated pS318-ATG13 antibody (Rockland Immunochemicals Cat #600-401-C49) was diluted in assay diluent and added to each well and incubated at rt for 1 h. Plate wells were washed with ELISA wash buffer. Streptavidin linked to horseradish peroxidase (Thermo Fisher Cat #21140) was diluted in assay diluent and added to each well and incubated at rt for 1 h. Plate wells were washed with ELISA wash buffer. High sensitivity TMB substrate (Biolegend Cat #421101) was added to each well and incubated at rt for 20 min. The reaction was stopped with 2.0N sulfuric acid. The plate was analyzed at on a plate reader measuring absorbance at 450 nm and 540 nm (background). Signal was calculated by first subtracting the background absorbance at 540 nm from the absorbance at 450 nm for each well. Next, the background corrected absorbance at 450 nm from blank wells was subtracted from test wells. Data was compared to control wells to determine % ATG13 phosphorylation. GraphPad Prism was used to calculate IC50 values.

| IC50 [nM] | Compound |
| --- | --- |
| ≤ 100 | CC/C(Nc1cnn(C2CCN(C(C)C)CC2)c1)=C1/C(=O)Nc2ccc(C(=O)NC[C@H]3CCCO3)cc21 [Example 1, (R,Z)-3-(1-((1-(1-isopropylpiperidin-4-yl)-1H-pyrazol-4-yl)amino)propylidene)-2-oxo-N-((tetrahydrofuran-2-yl)methyl)indoline-5-carboxamide] |

The molecules below were run on ULK kinase substrate ATG13 (pS318-ATG13) in HCT-116 cells (assay: pATG13 levels of mutant KRas HCT-116 cells after treatment with ULK inhibitors in combination with trametinib (ELISA)). Settings: not given.
Type: cell-based, human
Method: pATG13 Levels of Mutant KRas HCT-116 Cells after Treatment with ULK Inhibitors in Combination with Trametinib
HCT-116 human colon cancer cells (10000 cells/well) were added to a 384-well tissue-culture treated plate in 50 μL of pre-warmed DMEM medium supplemented with 10% characterized fetal bovine serum (Invitrogen, Carlsbad, CA), 100 units/mL penicillin G, and 100 μg/mL streptomycin and allowed to grow overnight at 37° C., 5% CO2, and 95% humidity. The following day, 10 μL of media containing trametinib or DMSO as a control was added to wells. The final concentration of trametinib in wells was 250 nM. A dose response of a test compound (0.6 μL per well) was added. DMSO (0.6 μL) was added to control wells. The plate was briefly shaken to mix wells and then incubated at 37° C. overnight. The next day, the media was aspirated and cells were washed with Dulbecco's Phosphate Buffered Saline (Gibco). Cells were lysed using MPER lysis buffer (Pierce, Rockford, IL) containing Halt Phosphatase and Protease Inhibitors (Pierce, Rockford, IL) and Phosphatase inhibitor cocktail 2 (Sigma, St. Louis, MO) at 4° C. for 10 minutes with shaking.
as §1, with “minutes.” for “min.”

| IC50 [nM] | Compound |
| --- | --- |
| ≤ 100 | CC/C(Nc1cnn(C2CCN(C(C)C)CC2)c1)=C1/C(=O)Nc2ccc(C(=O)NC[C@H]3CCCO3)cc21 [Example 1, (R,Z)-3-(1-((1-(1-isopropylpiperidin-4-yl)-1H-pyrazol-4-yl)amino)propylidene)-2-oxo-N-((tetrahydrofuran-2-yl)methyl)indoline-5-carboxamide] |
| ≤ 100 | CC/C(Nc1ccc(N2CCN(C)CC2)cn1)=C1/C(=O)Nc2ccc(C(=O)NCC(F)(F)F)cc21 [Example 75] |
| ≤ 100 | CC/C(Nc1cnn(C)c1)=C1/C(=O)Nc2ccc(C(=O)NCC(F)(F)F)cc21 [Example 77] |
| > 600 | CC/C(Nc1cnn(C2CCN(C(C)C)CC2)c1)=C1/C(=O)Nc2ccc(C(=O)NCCOC(F)(F)F)cc21 [Example 82] |
| ≤ 100 | CC/C(Nc1cnn(C2CN(C)C2)c1)=C1/C(=O)Nc2ccc(C(=O)NCC(F)(F)F)cc21 [Example 86] |

Source: US20240150368A1, “ULK INHIBITORS AND METHODS OF USE THEREOF” (Deciphera Pharmaceuticals, LLC, priority 2022, published 2024)
